Ends that are not written are not given here.
Legend:
DU145 cells = experiment: Stability testing of the peptide in RPMI 1640 with 10% FBS, read out by DU145 cell viability; assay type: in vitro ADME, human; conditions: pre-incubation in RPMI 1640 with 10% FBS, 37°C, 24 hours; then 24 hours on DU145 cells, MTS 490 nm, triplicate
Description: Figure 4 A. D- Arg Peptide incubated in 10% FBS RPMI media at 37°C for 24 hours is resistant to proteolysis; it is as effective as the non-incubated D- Arg Peptide in DU145 cells. D- Arg Peptide was incubated in RPMI media containing 10% FBS at 37°C for 24 hours. DU145 cells were seeded in a 96 well plate at 5000 cells in each well. After 24 hours either the incubated D- Arg Peptide or the non-incubated D- Arg Peptide was added to the cells. B. D- Arg and L-Arg Peptide incubated in 10% FBS RPMI media at 37°C for 24 hours. DU145 cells were seeded in a 96 well plate at 5000 cells in each well. After 24 hours either the incubated D- Arg Peptide or the L- Arg Peptide was added to the cells. The cell viability in both experiments were assessed after another 24 hours by measuring the absorption at 490nm using the MTS tetrazolium Promega CellTitre 96® Aqueous One Solution Cell proliferation assay according to the manufacturer’s instructions. Each time point was done in triplicate and values are represented by mean with standard mean deviation.
The peptide was mixed with the RPMI 1640 medium containing 10% FBS and incubated at 37 °C for 24 hours. Cells were plated in a 96 well plate in 180 μl of the media containing 10% FBS. After 24 hours, 20 μl of either the incubated D- Arg or the regular (fresh) D- Arg Peptide was added to the cell plate and tested after another 24 hours. Then 20 μl of the MTS tetrazolium Promega CellTitre 96® Aqueous One Solution Cell Proliferation Assay was added to each well and incubated for two to three hours. Absorbance was measured at 490 nm as per the manufacturer’s protocol to determine the cell viability.

[1] = test system: pRB negative small cell lung cancer (SCLC) cells; conditions: cited from earlier work
Excerpt: (§1) This unique E2F1 inhibitory peptide with the sequence His-His-His-Arg-Leu-Ser-His, found by phage display, was discovered by its ability to bind tightly to an immobilized consensus E2F1 promoter sequence. Importantly, treatment of tumor xenografts of human small cell lung cancer H69 and human prostate cancer DU14 ...

[2] = test system: DU145 prostate cancer cells; conditions: cited from earlier work
Excerpt: as §1

Burkitt lymphoma cells = conditions: cited from earlier work
Excerpt: as §1

[3] = test system: consensus E2F1 promoter sequence; conditions: found by phage display; cited from earlier work
Excerpt: as §1

Molecule: CC[C@H](C)[C@H](NC(=O)[C@H](CCCCN)NC(=O)[C@@H](NC(=O)[C@H](CCC(N)=O)NC(=O)[C@@H](N)CCCNC(=N)N)[C@@H](C)CC)C(=O)N[C@@H](Cc1c[nH]c2ccccc12)C(=O)N[C@@H](Cc1ccccc1)C(=O)N[C@@H](CCC(N)=O)C(=O)N[C@@H](CC(N)=O)C(=O)N[C@@H](CCCNC(=N)N)C(=O)N[C@@H](CCCNC(=N)N)C(=O)N[C@@H](CCSC)C(=O)N[C@@H](CCCCN)C(=O)N[C@@H](Cc1c[nH]c2ccccc12)C(=O)N[C@@H](CCCCN)C(=O)N[C@@H](CCCCN)C(=O)N[C@@H](Cc1c[nH]cn1)C(=O)N[C@@H](Cc1c[nH]cn1)C(=O)N[C@@H](Cc1c[nH]cn1)C(=O)N[C@@H](CCCNC(=N)N)C(=O)N[C@@H](CC(C)C)C(=O)N[C@@H](CO)C(=O)N[C@@H](Cc1c[nH]cn1)C(=O)O [L-Arg PEP]
- Stability in serum: incubated D- Arg versus incubated L- Arg peptide (DU145 cells): unstable in serum
- Cytotoxicity [1]: cytotoxic at low micro molar concentrations
- Cytotoxicity [2]: cytotoxic at low micro molar concentrations
- Cytotoxicity (Burkitt lymphoma cells): cytotoxic at low micro molar concentrations

Molecule: CC[C@H](C)[C@H](NC(=O)[C@H](CCCCN)NC(=O)[C@@H](NC(=O)[C@H](CCC(N)=O)NC(=O)[C@@H](N)CCCNC(=N)N)[C@@H](C)CC)C(=O)N[C@@H](Cc1c[nH]c2ccccc12)C(=O)N[C@@H](Cc1ccccc1)C(=O)N[C@@H](CCC(N)=O)C(=O)N[C@@H](CC(N)=O)C(=O)N[C@@H](CCCNC(=N)N)C(=O)N[C@@H](CCCNC(=N)N)C(=O)N[C@@H](CCSC)C(=O)N[C@@H](CCCCN)C(=O)N[C@@H](Cc1c[nH]c2ccccc12)C(=O)N[C@@H](CCCCN)C(=O)N[C@@H](CCCCN)C(=O)N[C@@H](Cc1c[nH]cn1)C(=O)N[C@@H](Cc1c[nH]cn1)C(=O)N[C@@H](Cc1c[nH]cn1)C(=O)N[C@H](CCCNC(=N)N)C(=O)N[C@@H](CC(C)C)C(=O)N[C@@H](CO)C(=O)N[C@@H](Cc1c[nH]cn1)C(=O)O [D-Arg PEP]
- Stability in serum: incubated D- Arg versus incubated L- Arg peptide (DU145 cells): more resistant to proteolysis after pre-incubation in serum
- Stability: toxicity of pre-incubated versus fresh non-incubated peptide (DU145 cells): as potent as the non-incubated fresh D- Arg PEP

Molecule: HHHRLSH [E2F1 inhibitory peptide, 7-mer peptide His-His-His-Arg-Leu-Ser-His found by phage display]
- Binding to immobilized consensus E2F1 promoter sequence [3]: bind tightly
